Measured values published in US8232101B2, “Identification of antigenic peptides from multiple myeloma cells” (Janssen Pharmaceutica N.V., priority 2009, dated 2012).

Legend:
[1] = biological target: T1, HLA-A2 molecules in T2 cells (Homo sapiens, UniProt P04439, D140Y/D185E/D98H/E176V/E277Q/G131W/G231S/I119V/I121R/I166T/I218V/L300P/L318F/N151K/N90K/P208A/P217A/Q86G/Q94H/R138H/R169H/T345S); assay: HLA-A2 Stabilization Assay (peptide binding, T2 cells, flow cytometry); design: key: Strong (S); Median (M); Weak (W); None (N)
T1 construct: HLA-A2 molecules that are synthesized in a transporter associated with antigen processing (TAP)-deficient cell line, T2; host or cells: T2 cells (TAP-deficient human cell line)
From the text: The assay for peptide binding to class I major histocompatibility complex (MHC/HLA-A2) molecules is based on the ability of peptides to stabilize MHC class I, HLA-A2 molecules that are synthesized in a transporter associated with antigen processing (TAP)-deficient cell line, T2 (ATCC® Number: CRL-1992). The extent of stabilization of MHC class I molecules is directly related to the binding affinity of the added peptides (Townsend et al., Cell. 1990 Jul. 27; 62(2):285-95; Andersen et al., Tissue Antigens. 1999 August; 54(2):185-90).
For the assay, T2 cells were plated in 96-well V-bottom plates, 100 ul/well RPMI media, at a density of 1×10^6 cells/ml, with final peptide concentrations of 200 uM, 20 uM, 2 uM, 200 nM, 20 nM, 2 nM, and no peptide as negative control. The cells with peptides were incubated for 18 hours at 26° C., 5% CO2. After 18 hours, the plates were transferred to 37° C., 5% CO2 and incubated for an additional 3 hours. The cells in plate were washed once with FACS buffer (PBS, 2.5% FCS, 1% NaN3) and then stained by adding 1 ul/well FITC-labeled mouse anti-human HLA-A2 antibody (BD Pharmingen, Cat. No. 551285), 1 ul/well PI, and then incubating at 4° C. for 30 minutes. After staining, cells were resuspended in 200 ul of FACS buffer and transferred from 96-well plates to racks of 96 microtubes. Samples were run on a FACScan flow cytometer and the data were analysed by using CellQuest software.
A peptide of Hepatitis B Core protein (HBC) was used as a positive control. The Hepatitis B Core peptide is a potent HLA-A2.1 epitope and consists of residue numbers 18-27 of the core sequence, amino acids […] (SEQ ID NO:73) (Zhang et al. Immunology. 2007, 121(1):105-12).

[2] = test system: T2 cells loaded with individual peptides; assay: 51Cr Release Assay for activity of CTL generated with peptide-loaded Drosophila aAPC; type: cell-based, human; design: key to CTL Activity: Strong (S); Median (M); Weak (W); None (N); conditions: for Ability to induce CTL in normal donors: truncated and computer predicted peptides; for Induction of CTL in two normal donors: Donor 1 and Donor 2, FIG. 3 and FIG. 4; for CTL Activities Median: number of donors that elicited Median activity over total number of donors; for CTL Activities Median / CTL Activities Strong / CTL Activities Weak / CTL Activities None: T2 targets loaded with individual peptide; for CTL Activities Strong: number of donors that elicited Strong activity over total number of donors; for CTL Activities Weak: number of donors that elicited Weak activity over total number of donors; for CTL Activities None: number of donors that elicited no activity over total number of donors
Experimental: Drosophila aAPC were generated from Schneider S2 cells (S2 cells), which were originally established in 1969 from several hundred Oregon-R (wild type) Drosophila melanogaster (Oregon-R) embryos (American Type Culture Collection (ATCC) CRL-1963) according to published procedures (Schneider, J. Embryol. Exp. Morph. 1972 Vol 27, pp. 353-365), and deposited in the ATCC(CRL10974). S2 cells are grown in commercial Schneider's Drosophila medium supplemented with 10% heat-inactivated fetal bovine serum. In order to generate aAPCs, human complementary DNAs (cDNAs) for HLA-A2.1, B7.1, LFA-3, ICAM-1 and CD70, were individually inserted into the pRmHa-3 vector and S2 cells were transfected using the calcium phosphate precipitation method with a mixture of HLA-A2.1, B7.1, LFA-3, ICAM-1 and CD70 plasmid DNAs (for aAPC clone 1120) and the phshneo plasmid. (see U.S. Pat. No. 6,225,042 regarding construction and use of pRMHa plasmid vectors). The human cDNAs were prepared using standard techniques by reverse transcription-PCR using primers derived from the published sequences for HLA-A2.1 from K562 cells, B7.1 from K562 cells, LFA-3 from HL60 cells, ICAM-1 from K562 cells, and CD70 from HLA-A2.1+LCL cells. K562 cells are a human erythroleukemic cell line, HL60 cells are a promyelocytic leukemia human cell line, and HLA-A2.1+LCL cells are an Epstein-Barr virus (EBV)-transformed lymphoblastoid cell line (LCL). Stably transfected cells were selected by culturing in Schneider's medium containing geneticin. Prior to scale up of the cells, expression of the transfected genes is induced by the addition of CuSO4. The level of expression is assessed by flow cytometry using anti-HLA-A2.1, anti-B7.1, anti-LFA-3, anti-ICAM-1 and CD70 antibodies. For efficient in vitro activation of the CD8+ lymphocytes, greater than 30% of the Drosophila cells must express the HLA-A2.1 molecule. The Drosophila cells regularly express each of the molecules at levels between 70-90%. Drosophila aAPC were washed and then incubated at RT for 4 hours with 10 μM of different combinations of mixed peptides or individual peptides (See e.g. U.S. Pat. Nos. 6,225,042, 6,355,479, 6,362,001 and 6,790,662; U.S. Patent Application Publication Nos. 2009/0017000 and 2009/0004142; and International Publication No. WO2007/103009). Purified human CD8+ T cells from HLA-A2 positive donors were then incubated with peptide-loaded Drosophila APC at 37° C., 5% CO2, for 5 days. Human IL-2 (20 U/ml, R&D Systems) and IL-7 (30 U/ml, R&D Systems) were added at day 5 and the activated CD8+ T cells (CTL) were re-stimulated twice, at day 7 and day 15, with non-CD8 adherent cells in a total peripheral blood mononuclear cell (PBMC) preparation from the same donor in the presence of peptides.
A number of different CTL were generated using CD8+ T cells from different donors and different combinations of mixed peptides, including combinations that contained only one peptide. For example, 24 selected peptides were mixed or used individually to create different combinations of peptide mixtures (PM) or individual peptides (P5 and P14) and produce peptide-loaded Drosophila APC. The resulting peptide-loaded Drosophila APC were incubated with CD8+ T cells from 2 different donors (Donor 1 and Donor 2) to produce 11 different batches of CTL (Donor 1: PM1, PM2, PM3, PM4, and P14; Donor 2: PM1, PM2, PM3, PM4, P5, and P14) (Table 3).
CTL (Effector) activity was measured with a standard chromium (^51Cr) release assay, with T2 cells (Target) loaded with individual peptides and also with a number of tumor cell lines as target cells (Brunner et al., Immunology. 1968 February; 14(2):181-96). The highest Effector (E) Target (T) ratio (E/T) was 50:1, with 1:5 serial dilutions of CTL (Effector) used to produce a dose response. Before the assay, Target cells (T2 cells at 3×10^6 cells/100 ul in 1×PBS with 4% FCS) were labeled by adding 100 ul of ^51Cr (Perkin Elmer) and incubating at 37° C. for 1 hour. […]

[3] = T2 targets loaded with computer predicted peptides
[4] = truncated versions of P3, P13, P14
[5] = CTL generated with truncated peptides, T2 targets loaded with individual peptides

Substance | HLA-A2 Binding [1, 4] | CTL Activity [2, 5] | further results
FQMEQIVYC (listed as Homo sapiens) [Peptide P14-19] | – | – | HLA-A2 Binding ([1]; computer predicted peptides): M; CTL Activity [2, 3]: M; Ability to induce CTL in normal donors [2]: able to induce CTL
LVLNLLE (listed as Homo sapiens) [Peptide P3-8] | N | M | Ability to induce CTL in normal donors [2]: able to induce CTL
TLVDLPGMTKV (listed as Homo sapiens) [Peptide P13] | M | M | Induction of CTL in two normal donors [2]: induced CTL; CTL Activities Median [2]: 2/13; CTL Activities Strong [2]: 4/13; CTL Activities Weak [2]: 5/13; CTL Activities None [2]: 2/13
IDLPGIT (listed as Homo sapiens) [Peptide P14-16] | W | W | –
TLVDLPGM (listed as Homo sapiens) [Peptide P13-8] | N | M | –
TLVDLP (listed as Homo sapiens) [Peptide P13-10] | N | S | –
KLHDAIVEVV (listed as Homo sapiens) [Peptide P13-16] | – | – | HLA-A2 Binding ([1]; computer predicted peptides): M; CTL Activity [2, 3]: W
FVPEVSFEL (listed as Homo sapiens) [Peptide P13-18] | – | – | HLA-A2 Binding ([1]; computer predicted peptides): S; CTL Activity [2, 3]: M; Ability to induce CTL in normal donors [2]: able to induce CTL
TLIDLPGITRV (listed as Homo sapiens) [Peptide P14] | M | M | Induction of CTL in two normal donors [2]: induced CTL; CTL Activities Median [2]: 1/17; CTL Activities Strong [2]: 14/17; CTL Activities Weak [2]: 1/17; CTL Activities None [2]: 1/17
KLHDAIVEV (listed as Homo sapiens) [Peptide P13-17] | – | – | HLA-A2 Binding ([1]; computer predicted peptides): S; CTL Activity [2, 3]: S; Ability to induce CTL in normal donors [2]: able to induce CTL
DLPGITRV (listed as Homo sapiens) [Peptide P14-3] | N | – | –
LVYLGHVIYL (listed as Homo sapiens) [Peptide P3-11] | – | – | HLA-A2 Binding ([1]; computer predicted peptides): W; CTL Activity [2, 3]: S; Ability to induce CTL in normal donors [2]: able to induce CTL
TLIDLPG (listed as Homo sapiens) [Peptide P14-9] | N | – | –
LNLLEL (listed as Homo sapiens) [Peptide P3-3] | N | – | –
IDLPGITR (listed as Homo sapiens) [Peptide P14-14] | W | M | Ability to induce CTL in normal donors [2]: able to induce CTL
TLIDLP (listed as Homo sapiens) [Peptide P14-10] | N | – | –
TLIDLPGITR (listed as Homo sapiens) [Peptide P14-6] | N | – | –
VLNLLEL (listed as Homo sapiens) [Peptide P3-2] | N | – | –
SLVLNL (listed as Homo sapiens) [Peptide P3-6] | N | – | –
TLIDLPGI (listed as Homo sapiens) [Peptide P14-8] | N | – | –
SLVLNLLEL (listed as Homo sapiens) [Peptide P3] | M | M | Induction of CTL in two normal donors [2]: induced CTL; CTL Activities Median [2]: 1/12; CTL Activities Strong [2]: 5/12; CTL Activities Weak [2]: 4/12; CTL Activities None [2]: 2/12
LIDLPGI (listed as Homo sapiens) [Peptide P14-15] | W | S | Ability to induce CTL in normal donors [2]: able to induce CTL
TLIDLPGIT (listed as Homo sapiens) [Peptide P14-7] | N | – | –
TLVDLPGMTK (listed as Homo sapiens) [Peptide P13-6] | N | – | –
LIDLPGIT (listed as Homo sapiens) [Peptide P14-13] | N | – | –
IDLPGITRV (listed as Homo sapiens) [Peptide P14-2] | N | – | –
LVDLPGMTKV (listed as Homo sapiens) [Peptide P13-1] | N | – | –
DLPGMTK (listed as Homo sapiens) [Peptide P13-15] | N | – | –
